The source of these data is patent US10266510B2, “Antimicrobial and cytotoxic compounds and methods for treating cancer, a bacterial infection, and/or a fungal infection” (King Abdulaziz University, priority 2017, dated 2019).

In data set [1] the test system is Aspergillus niger NRRL 2766. Put plainly: Well diffusion agar method, inhibition zone. The class given is cell-based. To be noted: for zone of inhibition at 50 µg/mL / Antifungal effect (in words): Aspergillus niger; for zone of inhibition at 50 µg/mL: NRRL2766; for Antifungal effect (in words): in comparison with Neomycin. An excerpt: (§1) The ability to inhibit the growth of Gram-positive and Gram-negative bacteria, yeasts and filamentous fungi was observed using an overlay method (S. R. Connell, D. M. Tracz, K. H. Nierhaus, D. E. Taylor, Antimicrob. Agents Chemother. 47, 3675 (2003), incorporated herein by reference in its entirety).
(§2) The common pathogenic and food spoilage microorganisms were selected for their relevance in bakery products and other food: the gram-positive bacteria: Bacillus subtilits NRRL-B-4219, Staphylococcus aureus ATCC 6538, Enterococcus faecalis ATCC 19433; the gram negative bacteria: Escherichia coli ATCC 25922, Pseudomonas aeruginosa ATCC 9027, Proteus sp.; yeasts, such as Candida albicans ATCC 10231; and fungi: Aspergillus niger NRRL 2766 (equivalent to ATCC 16888), and Aspergillus flavus ATCC 16883. The bacteria were slanted on nutrient agar (Merck, Darmstadt, Germany), yeast was slanted and mentioned on Sabaroud's agar medium (Lab M., Bury, Lancashire, UK) and the fungi was slanted and mentioned on the potato Dextrose Agar medium (Lab M Limited, Bury, Lancashire, UK). Mueller-Hinton agar (Lab M., Bury, Lancashire, UK) following the manufacturer's instructions was used for the assay.
(§3) All compounds were dissolved in dimethyl sulfoxide (RFCL Limited, New Delhi, India) at 50 μg/mL concentration as shown in Table 4 in comparison with different standard antibiotics. Antibiotic discs of Streptomycin (S) (10 μg), Oxytetracycline (T) (30 μg), and Tetracyciline (TE) (30 μg) were used as positive controls for bacteria. Neomycin (N) (30 μg), was used for fungi.
(§4) The antibacterial screening was performed with the well diffusion agar method (S. T. Williams, M. Goodfellow, E. M. H. Wellington, J. C. Vickers, G. Alderson, P. H. A. Sneath, S. M. J. Sackins, A. M. Mortimer, J. Gen. Microbiol. 129, 1815(1983); and B. Bonev, J. Hooper, J. Parisot, J. Antimicrob. Chemother., 61, 1295(2008), each incorporated herein by reference in their entirety). The organisms were streaked in radial patterns on the agar plates. Plates were incubated under aerobic conditions at 37° C. and 28° C. for 24 h and 48 h for bacteria and fungi, respectively. All prepared solutions were treated under the same conditions under the same incubated plates. All tests were performed in triplicate. Plates were examined for evidence of antimicrobial activities, represented by a zone of inhibition of the microorganism's growth around the holes, and diameters of clear zones were expressed in millimeters (R. Cruickshank, J. P. Duguid, B. P. Marmion, R. H. A. Swain, The practice of medicinal microbiology. In Medical Microbiology, 12th ed.; Churchill Livingstone: Edinburgh, UK, Volume 11, pp. 196-202 (1975), incorporated herein by reference in its entirety).
(A growth-free zone around the sample is the usual read-out of agar diffusion tests.)

The subject of data set [2] is Staphylococcus aureus ATCC 6538. Put plainly: Well diffusion agar method, inhibition zone. The format is cell-based. The conditions noted are these: compound at 50 μg/mL in DMSO, 37° C., 24 h; for zone of inhibition at 50 µg/mL: Staphylococcus aureus, ATCC6538, read-out: Inhibition zone, S. aureus.
Source text: as §1, §2, §3, §4

Data set [3] deals with Aspergillus flavus ATCC 16883. Nature of the data set: Well diffusion agar method, inhibition zone. The class given is cell-based. The conditions noted are these: for Antifungal activity (in words): A. flavus, in comparison with Neomycin; for zone of inhibition at 50 µg/mL: Aspergillus flavus, ATCC16883.
Source text: as §1, §2, §3, §4

Data set [4] has as its system Enterococcus faecalis ATCC 19433. Put plainly: Well diffusion agar method, inhibition zone. The class given is cell-based. To be noted: compound at 50 μg/mL in DMSO, 37° C., 24 h; for zone of inhibition at 50 µg/mL: Enterococcus faecalis, ATCC19433, read-out: Inhibition zone, Ent. faecalis.
Source text: as §1, §2, §3, §4

Data set [5] has as its system Candida albicans ATCC 10231. Nature of the data set: Well diffusion agar method, inhibition zone. The format is cell-based. The conditions noted are these: compound at 50 μg/mL in DMSO, 28° C., 48 h; for zone of inhibition at 50 µg/mL: Candida albicans, ATCC10231.
Source text: as §1, §2, §3, §4

The test system of the next data set is Proteus sp. Nature of the data set: Well diffusion agar method, inhibition zone. The format is cell-based. The conditions noted are these: compound at 50 μg/mL in DMSO; 37° C., 24 h.
Source text: as §1, §2, §3, §4

For data set [6], the system named is Escherichia coli ATCC 25922. Put plainly: Well diffusion agar method, inhibition zone. The format is cell-based. The conditions noted are these: compound at 50 μg/mL in DMSO, 37° C., 24 h; for zone of inhibition at 50 µg/mL: Escherichia coli, ATCC25922, read-out: Inhibition zone, E. coli.
Source text: as §1, §2, §3, §4

In data set [7] the test system is Bacillus subtilits NRRL-B-4219. Put plainly: Well diffusion agar method, inhibition zone. The format is cell-based. The conditions noted are these: compound at 50 μg/mL in DMSO, 37° C., 24 h; for zone of inhibition at 50 µg/mL: Bacillus, NRRLB4219.
Source text: as §1, §2, §3, §4

Data set [8] relates to Pseudomonas aeruginosa ATCC 9027. Nature of the data set: Well diffusion agar method, inhibition zone. The class given is cell-based. To be noted: compound at 50 μg/mL in DMSO, 37° C., 24 h; for zone of inhibition at 50 µg/mL: Pseudomonas aeruginosa, ATCC9027, read-out: Inhibition zone, P. aeruginosa.
Source text: as §1, §2, §3, §4

[9] abbreviates: compound at 50 μg/mL in DMSO, 28° C., 48 h.

In the case of `CCOC1Oc2ccccc2C(=O)C1=NNc1ccc(Cl)cc1` (centres unmarked) [Compound 6c, 3-[(4-Chlorophenyl)hydrazono]-2-ethoxychroman-4-one], the zone of inhibition at 50 µg/mL in data set [1] (setting [9]) was 18 mm; in data set [2] it was 30 mm; in data set [3] (setting [9]), 17 mm; in data set [4], 21 mm; in data set [5], 20 mm; in the data set with Proteus sp., 26 mm. The zone of inhibition at 50 µg/mL in data set [6] stood at 30 mm; in data set [7] it was 32 mm; in [8] it was 28 mm. Besides, in data set [1], the “Antifungal effect (in words)” value is on record as “more potent antifungal effect”. Further, the “Antifungal activity (in words)” value in data set [3] is given as “moderate activity”.

“Ethoxy-3-[(4-nitro-phenyl)-hydrazono]-chroman-one [Compound 6a]”: the “Antifungal effect (in words)” value in data set [1] was “more potent antifungal effect”. In data set [1] (setting [9]), the “Inhibition zone, A. niger” value is recorded as 22 mm. The “Inhibition zone, S. aureus” value in [2] is on record as 28 mm. Also, the “Antifungal activity (in words)” value in data set [3] was “moderate activity”. Moreover, the “Inhibition zone, A. flavus” value in [3] (setting [9]) is 22 mm. For the same compound, the “Inhibition zone, Ent. faecalis” value in data set [4] was 25 mm. For the same compound, in data set [5], the “Inhibition zone, C. albicans” value is reported as 24 mm. In addition, in the data set on Proteus sp., the “Inhibition zone, Proteus sp.” value was 27 mm. Besides, the “Inhibition zone, E. coli” value in data set [6] stood at 33 mm. Also, the “Inhibition zone, B. subtilits” value in [7] stood at 32 mm. Besides, the “Inhibition zone, P. aeruginosa” value in data set [8] amounted to 30 mm.

`CCOC1Oc2ccccc2C(=O)C1=NNc1ccccc1OC` (centres unmarked) [Compound 6b, 2-ethoxy-3-(2-(2-methoxyphenyl)hydrazono)chroman-4-one] came in with a melting point of 158 °C. In addition, the zone of inhibition at 50 µg/mL in data set [1] (setting [9]) turned out to be 0 mm. Moreover, the zone of inhibition at 50 µg/mL in data set [2] was 13 mm. Besides, the zone of inhibition at 50 µg/mL in data set [3] (setting [9]) is 0 mm. Also, the zone of inhibition at 50 µg/mL in data set [4] stood at 0 mm. Moreover, the zone of inhibition at 50 µg/mL in data set [5] was determined as 0 mm. The zone of inhibition at 50 µg/mL in the data set on Proteus sp. was 0 mm. Moreover, the zone of inhibition at 50 µg/mL in [6] was 12 mm. For the same compound, the zone of inhibition at 50 µg/mL in [7] was 16 mm. For the same compound, the zone of inhibition at 50 µg/mL in data set [8] stood at 0 mm.

The term melting point denotes the temperature, or range, at which the solid turns liquid.
